Assay results taken from patent US8268869B2, “Vinyl indazolyl compounds” (Eli Lilly and Company, priority 2009, dated 2012).

Legend:
[1] = test system: FGF9 induced ERK phosphorylation in Human RT112 bladder carcinoma cells; experiment: FGF9 induced p-ERK with BSA in RT112 cells; type: cell-based; conditions: RT-112, relative IC50, RT112 cells, 20 mg/mL BSA, 500 ng/mL FGF9
Procedure: Human RT112 bladder carcinoma cells are seeded at a density of 5,000 cells per well in 100 μL RPMI 1640 (Gibco 11875-085) supplemented with 10% fetal bovine serum (FBS, Gibco 10082-147) and 1% of a penicillin/streptomycin solution (Gibco 15140-122) in CELLBIND® 96 well plates (Corning 3340) and incubated overnight at 37° C. The next morning the growth medium is removed and replaced with 100 μL RPMI 1640 supplemented with 20 mg/mL bovine serum albumin (BSA). After 3 hours of incubation at 37° C., 20 μL of 3× serially diluted compounds in RPMI 1640 with 20 mg/mL BSA in 6% DMSO are added to each well. This yielded a 10 point dose-response curve ranging from 10-0.005 μM in 1% DMSO. The incubation is continued for 1 hour at 37° C. The cells are stimulated with 50 μL of a […] FGF9 (R&D Systems 273-F9) solution in serum free RPMI to give a final concentration of 500 ng/mL FGF9. Cells are fixed by the addition of 30 μL of a 25% formaldehyde solution in phosphate buffered saline (PBS) (3.7% formaldehyde final concentration), and incubated 30 minutes at RT. Cells are washed 3× with PBS, followed by the addition of 100 μL of cold methanol and incubated for 30 minutes at −20° C. The methanol is removed and the cells are treated with PBS containing 0.1% TRITON® X-100 (PBST), washed 3× with PBS, and incubated 15 minutes at RT. […]

[2] = test system: FGF receptor 1 (b-FGF induced pERK in HUVEC); experiment: AlphaScreen SureFire Detection of ERK phosphorylation (Thr202/Tyr204) in HUVEC; type: cell-based; conditions: Homo sapiens, b-FGF 50 ng/mL, 20 mg/mL BSA
Procedure: The effect of compounds on the inhibition of FGF receptor 1 is measured by monitoring the phosphorylation of ERK (pERK) in response to basic-Fibroblast growth factor (b-FGF) stimulation in Human Umbilical Endothelial cells (HUVEC). The levels of pERK formed are measured using the ALPHASCREEN® […]® system (TGR Biosciences, TGRES50K). This is a homogeneous assay format utilizing the immuno-sandwich capture of the phosphorylated analyte followed by detection using antibody-coated ALPHASCREEN® beads (Perkin Elmer) to generate an amplified signal.
HUVEC cells are recovered and maintained in growth medium consisting of endothelial cell basal medium (Clonetics, CC-3132) supplemented with 10% FBS 0.4% bovine brain extract 0.1% hydrocortisone, 0.1% gentamicin sulfate amphotericin-B (GA-1000), and 0.1% epidermal growth factor, human recombination until passage 7. For the assay, cells are harvested by standard procedures and then counted. Cells (20,000/well) are plated in 100 μL of growth medium into 96 well Poly-D-Lysine coated plates (BD, 354640). Plates are incubated overnight at 37° C., 5% CO2.
On the day of the assay, cells are serum starved in 100 μL EBM (endothelial cell basal) medium containing 1.5% FBS and 20 mg/mL BSA for 3 hours at 37° C., 5% CO2, then treated with 20 μL of 3× serially diluted compounds in starvation medium for 1 hour at 37° C. […]

[3] = biological target: T1, Kdr (Mus musculus, UniProt P35918); experiment: In vivo Kdr target inhibition assay (VEGF induced phospho-Kdr in mouse heart); conditions: female nude mice, oral gavage, VEGF i.v., heart tissue
T1 construct: Heart tissues are collected and homogenized as described above; from tissue; host or cells: heart of female nude mice (CD1/nu/nu)
T1 sequence (P35918 20-1345): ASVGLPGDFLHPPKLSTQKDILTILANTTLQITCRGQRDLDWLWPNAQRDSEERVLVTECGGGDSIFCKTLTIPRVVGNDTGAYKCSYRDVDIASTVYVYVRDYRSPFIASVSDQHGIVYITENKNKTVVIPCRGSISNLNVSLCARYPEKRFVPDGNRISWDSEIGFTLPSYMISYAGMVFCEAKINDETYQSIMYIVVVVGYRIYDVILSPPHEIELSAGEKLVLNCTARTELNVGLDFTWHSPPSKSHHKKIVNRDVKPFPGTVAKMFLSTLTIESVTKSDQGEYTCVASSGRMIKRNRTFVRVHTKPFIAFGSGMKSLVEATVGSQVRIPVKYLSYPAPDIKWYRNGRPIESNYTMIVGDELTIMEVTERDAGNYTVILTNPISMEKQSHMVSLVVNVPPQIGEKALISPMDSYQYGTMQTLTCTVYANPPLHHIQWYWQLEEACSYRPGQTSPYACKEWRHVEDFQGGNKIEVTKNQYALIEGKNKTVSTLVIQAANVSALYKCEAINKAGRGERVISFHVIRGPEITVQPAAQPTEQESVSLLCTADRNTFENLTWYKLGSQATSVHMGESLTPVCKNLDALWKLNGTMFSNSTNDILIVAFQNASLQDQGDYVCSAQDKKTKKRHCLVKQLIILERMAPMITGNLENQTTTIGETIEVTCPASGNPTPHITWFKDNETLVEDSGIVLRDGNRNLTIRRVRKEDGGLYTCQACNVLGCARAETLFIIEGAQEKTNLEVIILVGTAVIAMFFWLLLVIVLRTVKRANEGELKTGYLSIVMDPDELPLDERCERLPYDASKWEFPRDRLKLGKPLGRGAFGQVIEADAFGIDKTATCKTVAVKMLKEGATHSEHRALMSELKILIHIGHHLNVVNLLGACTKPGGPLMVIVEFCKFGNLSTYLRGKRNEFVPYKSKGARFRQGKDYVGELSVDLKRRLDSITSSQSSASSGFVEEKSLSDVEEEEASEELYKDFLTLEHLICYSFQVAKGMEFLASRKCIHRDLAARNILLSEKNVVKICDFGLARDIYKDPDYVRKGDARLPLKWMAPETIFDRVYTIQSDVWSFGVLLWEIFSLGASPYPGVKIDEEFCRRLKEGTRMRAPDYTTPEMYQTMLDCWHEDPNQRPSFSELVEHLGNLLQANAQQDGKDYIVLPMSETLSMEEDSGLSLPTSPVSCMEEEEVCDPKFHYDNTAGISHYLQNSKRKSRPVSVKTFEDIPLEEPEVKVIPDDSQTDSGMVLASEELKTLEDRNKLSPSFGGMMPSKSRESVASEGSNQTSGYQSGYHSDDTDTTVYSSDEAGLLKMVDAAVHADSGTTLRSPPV
Procedure: To assess the activity of this compound against Kdr, female nude mice (CD1/nu/nu) are acclimated and treated as described above except VEGF is used to induce Kdr autophosphorylation {VEGF (6 ug/animal, R & D Systems 493-MV/CF). Heart tissues are collected and homogenized as described above. The resulting homogenates are analyzed using MSD® phospho-Kdr ELISA (Meso Scale Discovery, catalog number N41ZA-1) to determine tissue phospho-Kdr level. […] The positive control group is treated with VEGF […]) in saline administered intravenously (as minimum p-KDR inhibition of 0%).

[4] = test system: Human bladder cancer cells RT112; experiment: Xenograft tumor model RT-112 (bladder); type: in vivo, nude mice; conditions: oral gavage
Source text: (§1) One of Human bladder cancer cells RT112 (European Collection of Cell Cultures), human multiple myeloma cells OPM-2 (German Collection of Microorganisms and Cell Cultures), human non-small cell lung cancer (NSCL) cells NCI-H460 (American Type Culture Collection), human pancreatic cancer cells BxPC-3 (American Type Culture Collection) or human gastric cancer cells SNU-16 (American Type Culture Collection) are expanded in culture, according to KOREAN CELL LINE BANK (KCLB) recommendations, harvested and injected subcutaneously onto the rear flank of nude mice. When tumors are established (7-21 days after implant), animals are randomized and grouped into control and test groups. Test compound is prepared in an appropriate vehicle (i.e. formulated in 10% Acacia), and the test compound and a vehicle control are administered by oral gavage. Tumor response is determined by tumor volume measurement performed twice a week during the course of treatment and reported as percent inhibition of tumor volume versus the vehicle control group.

[5] = test system: human gastric cancer cells SNU-16; experiment: Xenograft tumor model SNU-16 (gastric); type: in vivo, nude mice; conditions: oral gavage
Source text: as §1

[6] = test system: human multiple myeloma cells OPM-2; experiment: Xenograft tumor model OPM-2 (multiple myeloma); type: in vivo, nude mice; conditions: oral gavage
Source text: as §1

[7] = test system: human non-small cell lung cancer (NSCL) cells NCI-H460; experiment: Xenograft tumor model NCI-H460 (NSCLC); type: in vivo, nude mice; conditions: oral gavage
Source text: as §1

[8] = test system: human pancreatic cancer cells BxPC-3; experiment: Xenograft tumor model BxPC-3 (pancreatic); type: in vivo, nude mice; conditions: oral gavage
Source text: as §1

C[C@@H](Oc1ccc2[nH]nc(/C=C/c3cnn(CCO)c3)c2c1)c1c(Cl)cncc1Cl [Example 1, (R)-(E)-2-(4-(2-(5-(1-(3,5-Dichloropyridin-4-yl)ethoxy)-1H-indazol-3-yl)vinyl)-1H-pyrazol-1-yl)ethanol]
IC50 [1]: 0.4 nM
IC50 [2]: 0.6 nM
TEC90 (concentration necessary to achieve 90% inhibition of phospho-Kdr) [3]: 252 nM
TED50 (dose necessary to achieve 50% inhibition of phospho-Kdr) [3]: 1.34 mg/kg
percent inhibition of tumor volume versus vehicle control ([4]; RT-112, 3 mg/kg BID for 21 days): 85.9%
percent inhibition of tumor volume versus vehicle control ([4]; RT-112, 3 mg/kg QD for 21 days): 41.3%
percent inhibition of tumor volume versus vehicle control ([5]; SNU-16, 3 mg/kg BID for 17 days): 83%
percent inhibition of tumor volume versus vehicle control ([5]; SNU-16, 3 mg/kg QD for 17 days): 62%
percent inhibition of tumor volume versus vehicle control ([6]; OPM-2, 3 mg/kg BID for 21 days): 84%
percent inhibition of tumor volume versus vehicle control ([6]; OPM-2, 3 mg/kg QD for 21 days): 68%
percent inhibition of tumor volume versus vehicle control ([7]; NCI-H460, 3 mg/kg BID for 17 days): 69%
percent inhibition of tumor volume versus vehicle control ([7]; NCI-H460, 3 mg/kg QD for 17 days): 46%
percent inhibition of tumor volume versus vehicle control ([8]; BxPC-3, 3 mg/kg BID for 21 days): 55%
percent inhibition of tumor volume versus vehicle control ([8]; BxPC-3, 3 mg/kg QD for 21 days): 1%
